Laboratory results as given in US20250009819A1, “NOVEL PROBIOTICS AND USE THEREOF” (PBLBIOLAB CO., LTD., priority 2021, published 2025).

Experiments:
Format in all cases: in vivo, C57BL/6 male mice
[1] = tested on: animals with LPS-induced cognitive impairment; test: Animals with LPS-induced cognitive impairment: colitis improvement (colon); conditions: LPS-treated mice, 1×10^9 CFU/mouse or sulfasalazine 50 mg/kg once a day for 5 days
Protocol: (§1) To 100 mg of colon tissue, 200 μl of 10 mM potassium phosphate buffer (pH 7.0) containing 0.5% hexadecyl trimethyl ammonium bromide was added and homogenized. Then, the supernatant was obtained by centrifugation for 10 minutes at 4° C. and 10,000 g. A volume of 50 μl of the supernatant was added to 0.95 mk of reaction solution (containing 1.6 mM tetramethyl benzidine and 0.1 mM H2O2), reacted at 37° C., and absorbance was monitored over time at 650 nm.
(§2) Hippocampus, colon, and spleen tissues were homogenized by adding 1 ml of RIPA buffer (Gibco) containing protease inhibitor cocktail and centrifuged at 4° C., 13000 rpm for 15 min to obtain supernatant. Indicators of this supernatant were measured using an ELISA kit (Ebioscience).
C57BL/6 male mice (5 weeks old, 19-21 g) were divided (6 mice in each group) and acclimatized to the laboratory for 1 week. To induce intestinal and brain diseases, mice were intraperitoneally administered Escherichia coli-derived LPS (10 μg/kg) once daily for 5 days. […] Experimental animals in the normal group were orally administered with a physiological saline solution, which was used to suspend lactic acid bacteria. The day following the conclusion of sample administration, the experimental animals were sacrificed, and samples from the brain hippocampus, colon, and spleen were collected. In the Hippocampus, inflammatory indicators, such as IFN-γ, TNF-α, and IL-10, were measured using ELISA. In the colon, intestinal length and inflammatory indicators, such as IFN-γ, TNF-α, and IL-10, were measured. In the spleen, Th1 cells and Treg cells were measured by FACS (Fluorescence-Activated Cell Sorting).

[2] = tested on: animals with antibiotic-induced gut microbiota imbalance; test: Animals with antibiotic (ampicillin)-induced gut microbiota imbalance: improvement effect in spleen; conditions: ampicillin (AP)-treated mice, 1×10^9 CFU/mouse orally once a day for 5 days; for Foxp3 (fold change) / Tbet (fold change) / Tbet/Foxp3: spleen qPCR; for IFN-γ/IL-10 / IL-10 / Interferon (IFN)-γ / NK cell cytoxicity (%) / Phagocytosis (%) / TNF-a/IL-10 / TNF-α: spleen
Protocol: as §2
mRNA was isolated from spleen tissue using the RNA Isolation Kit: RNeasy Mini Kit (QIAGEN), converted to cDNA, and qPCR was performed to measure the expression rates of Tbet, Foxp3, and glyceraldehyde 3-phosphate dehydrogenase (GAPDH). The reaction product was first treated at 95° C. for 30 seconds, followed by 38 cycles of 5 seconds at 95° C. and 30 seconds at 72° C. for analysis.
(§3) C57BL/6 male mice (5 weeks old, 19-21 g) were divided (6 mice in each group) and acclimatized to the laboratory for 1 week. To induce intestinal and brain diseases, the mice were orally administered with ampicillin (AP, 100 mg/kg, dissolved in physiological saline) for 3 days. Meanwhile, the normal group was orally administered with 0.1 ml of physiological saline. […] The day following the conclusion of sample administration, the experimental animals were sacrificed, and samples from the brain hippocampus, colon, and spleen were collected. In the Hippocampus, inflammatory indicators, such as IFN-γ, TNF-α, and IL-10, were measured using ELISA. In the colon, intestinal length and inflammatory indicators, such as IFN-γ, TNF-α, and IL-10, were measured. In the spleen, Th1 cells and Treg cells were measured by FACS (Fluorescence-Activated Cell Sorting), and in feces, endotoxin (LPS) and gut microbial communities were measured.

healthy animal = test: Healthy animal: colon parameters; conditions: healthy mice, 1×10^9 CFU/mouse orally once a day for 5 days
Protocol: as §1, §2
C57BL/6 male mice (5 weeks old, 19-21 g) were divided (6 mice in each group) and acclimatized to the laboratory for 1 week. The mice were orally administered once a day for 5 days with lactic acid bacteria as a test sample suspended in physiological saline solution at a concentration of 1×10^9 CFU per mouse (NK210 alone (LR): 1×10^9 CFU/mouse, NK219 alone (BL): 1×10^9 CFU/mouse, combined (210+219): 210, 8×10^8 CFU/mouse and 219, 2×10^8 CFU/mouse). […] The day following the conclusion of sample administration, the experimental animals were sacrificed, and samples from the brain hippocampus, colon, and spleen were collected. In the Hippocampus, inflammatory indicators, such as IFN-γ, TNF-α, and IL-10, were measured using ELISA. In the colon, intestinal length and inflammatory indicators, such as IFN-γ, TNF-α, and IL-10, were measured. In the spleen, Th1 cells and Treg cells were measured by FACS (Fluorescence-Activated Cell Sorting).

gut microbiota = test: Gut microbiota analysis in animals with ampicillin-induced gut microbiota imbalance (FIG. 1); conditions: feces, ampicillin-treated mice, result in words
Protocol: First, DNA from feces was isolated using the QIAamp DNA stool mini kit (Qiagen, Germany), pyrosequencing was performed by amplifying barcoded primers (V4 region of the bacterial 16S rRNA gene) to generate amplicons, and 16S rDNA was analyzed by Illumina iSeq 100 (San Diego, CA) to analyze occupancy.
as §3

Substance | Colon (cm) [1] [cm] | IFN-γ/IL-10 [1] | IL-10 [1] [pg/mg] | Interferon (IFN)-γ [1] [pg/mg] | MPO activity [1] [μUnit/mg] | TNF-α [1] [pg/mg] | TNF-α/IL-10 [1] | Foxp3 (fold change) [2] [fold change] | Tbet (fold change) [2] [fold change] | Tbet/Foxp3 [2] | IFN-γ/IL-10 [2] | IL-10 [2] [pg/mg] | Interferon (IFN)-γ [2] [pg/mg] | NK cell cytoxicity (%) [2] [%] | Phagocytosis (%) [2] [%] | TNF-a/IL-10 [2] | TNF-α [2] [pg/mg] | Colon (cm) (healthy animal) | IFN-γ/IL-10 (healthy animal) | IL-10 (healthy animal) [pg/mg] | further results
Lactobacillus rhamnosus NK210 | 5.0 | 2.50 | 21.10 | 44.24 | 4.55 | 20.76 | 0.98 | 0.69 | 1.07 | 1.66 | 0.87 | 8.25 | 7.03 | 7.34 | 74.02 | 0.45 | 3.57 | 5.12 | 1.40 | 39.95 | Interferon (IFN)-γ (healthy animal): 55.75 pg/mg; MPO activity (healthy animal): 4.18 μUnit/mg; TNF-a/IL-10 (healthy animal): 0.34; TNF-α (healthy animal): 13.40 pg/mg; imbalance in the beta diversity, Proteobacteria, and Bacteroidetes of gut microbiota (gut microbiota): improved to a balanced form
Bifidobacterium longum NK219 | 4.8 | 2.35 | 19.56 | 44.72 | 4.30 | 18.59 | 0.96 | 1.66 | 1.03 | 0.74 | 0.81 | 11.35 | 9.12 | 6.47 | 69.91 | 0.40 | 4.32 | 5.03 | 1.52 | 42.89 | Interferon (IFN)-γ (healthy animal): 64.83 pg/mg; MPO activity (healthy animal): 3.53 μUnit/mg; TNF-a/IL-10 (healthy animal): 0.37; TNF-α (healthy animal): 15.73 pg/mg; imbalance in the beta diversity, Proteobacteria, and Bacteroidetes of gut microbiota (gut microbiota): improved to a balanced form
